Results as given in patent US4163662A, “Liquid formulations of 1-(3,4-dichlorophenyl)-3-methoxy-3-methylurea and selected chloroacetamides” (E. I. Du Pont de Nemours and Company, priority 1977, dated 1979).

Experiments:
Assay type in all cases: physicochemical
[1] = Cold Storage Test at -5° C., propachlor/linuron in trichloroethylene (Table I); details: for Max. Stable concentration (no crystallization) / Min. Unstable concentration (crystals first appear): total active ingredient
From the text: The temperature limits below which crystallization of solute will occur can be measured by storing samples in a controlled temperature chest, seeding with tiny crystals of pure materials and observing the growth or disappearance of crystals after a period of several days. If no crystals form, the process is then repeated at a lower temperature, until the limit of stability has been found. However, crystallization characteristics can be also meaningfully, rapidly and conveniently measured by a determination of the cloud point of the system.
(§1) Purified linuron, purified propachlor, purified alachlor and commercial "Triclene" (trichloroethylene, technical) are used in the procedure. Samples containing various ratios and concentrations of linuron, propachlor, and linuron-propachlor mixtures are placed in a cold chest. The temperature is lowered and samples are seeded with traces of dust of the active ingredients after the solution has been cooled to the test temperature of -5° C. The samples are then observed over the course of at least 3 to 4 days to determine whether crystallization has occurred. When the temperature of the system is maintained within the range of -4.5° to -5.0° C. for 4 days after seeding. The maximum solution concentration in grams of active ingredient per 100 grams of solvent, at which no crystallization occurs (Max. Stable), and the minimum solution concentration at which crystals first appear (Min. Unstable) are observed.

[2] = Amount of insoluble crystalline material after room temperature storage (Tables III, IV, V)
Protocol: Samples weighing 5 grams each total weight were prepared by mixing the indicated solids and liquids, in the indicated proportions and shaking in closed vials, which were sealed with epoxy cement to prevent evaporation.
Tables III, IV, and V show the proportions of each mixture and the amounts of insoluble, crystalline material observed in each case after room temperature storage: […]

[3] = Cold Storage Test at 3° C. and at -8° to -9° C., alachlor/linuron (Table II); details: for Max. Stable concentration / Min. Unstable concentration: total active ingredient
Protocol: as §1
A similar test was run replacing propachlor with alachlor and at ^+ 3° C. and at -8° to -9° C. with the following results: […]

Row | Compound | Max. Solubility Range, Linuron [1] | Max. Stable concentration (no crystallization) [1] [grams/100 grams Solvent] | Min. Unstable concentration (crystals first appear) [1] [grams/100 grams Solvent] | crystalline material ([2]; 5 weight % linuron, 95% tetrachloroethylene, room temperature) | crystalline material ([2]; 9 weight % linuron, 91% tetrachloroethylene, room temperature) | crystalline material ([2]; 9 weight % linuron, 91% xylene, room temperature) | crystalline material ([2]; 10 weight % linuron, 90% "Panasol" AN-3, room temperature) | crystalline material ([2]; 15 weight % linuron, 85% "Panasol" AN-3, room temperature) | crystalline material ([2]; 17 weight % linuron, 83% xylene, room temperature) | dissolution result on shaking in the solvent ([2]; hydrocarbons and halocarbons, room temperature) | Max. Solubility Range For Linuron ([3]; 3° C.) | Max. Stable concentration ([3]; 3° C.) [grams/100 grams Solvent] | Min. Unstable concentration ([3]; 3° C.) [grams/100 grams Solvent] | Max. Solubility Range For Linuron ([3]; -8° to -9° C.) | Max. Stable concentration ([3]; -8° to -9° C.) [grams/100 grams Solvent] | Min. Unstable concentration ([3]; -8° to -9° C.) [grams/100 grams Solvent] | Max. Solubility Range, Propachlor [1] | crystalline material ([2]; 18 weight % propachlor, 82% tetrachloroethylene, room temperature) | crystalline material ([2]; 30 weight % propachlor, 70% "Panasol" AN-3, room temperature) | crystalline material ([2]; 34 weight % propachlor, 66% xylene, room temperature)
1 | CON(C)C(=O)Nc1ccc(Cl)c(Cl)c1 [Linuron, 1-(3,4-dichlorophenyl)-3-methoxy-3-methylurea] | 4.1-5.2 grams/100 grams Solvent | 4.1 | 5.2 | moderate | heavy | slight | moderate | heavy | heavy | crystals remained | 4.1-4.7 grams/100 grams Solvent | 4.1 | 4.7 | 3.6-4.1 grams/100 grams Solvent | 3.6 | 4.1 |  |  |  | 
2 | CC(C)N(C(=O)CCl)c1ccccc1 [Propachlor, 2-chloro-N-isopropylacetanilide] |  | 21.9 | 25 |  |  |  |  |  |  |  |  |  |  |  |  |  | 21.9-25 grams/100 grams Solvent | moderate | moderate | moderate
